From patent publication US9260413B2, “Inhibitors of catechol O-methyl transferase and their use in the treatment of psychotic disorders” (Merck Sharp & Dohme Corp., priority 2013, dated 2016)
Where two headings read alike, the source gives them in different places.

Target: purified human COMT enzyme of the Val158 variant (membrane-bound MB-COMT) (Homo sapiens (Human), UniProt P21964)
Test: Esculetin or Fluorescence Polarization assay (MB-COMT)
Assay type: biochemical
Procedure: Assays utilized purified human COMT enzyme of the Val158 variant (membrane-bound MB-COMT or soluble S-COMT) containing a C-terminal 6 or 10-histidine tag.
In a typical experiment the COMT inhibitory activity of the compounds of the present invention was determined in accordance with the following experimental methods detailed below. The fluorescence assay was based on methylation of a substrate (6,7-dihydroxycoumarin or ‘esculetin’) by COMT to produce a highly fluorescent product (7-hydroxy-6-methoxycoumarin or ‘scopoletin’). The reaction requires the presence of magnesium ions and a methyl donor, in this case S-adenosylmethionine (SAM). […] Recombinant enzyme was diluted in assay buffer (100 mM Na2HPO4 pH 7.4, 1 mM DTT, 0.005% Tween-20) and 35 μL was added to assay wells containing 1 μL of compound. Preincubation of COMT enzyme and compound proceeded for 2 hours at room temperature. Enzyme assays were initiated with 5 uL of a mixture containing 40 μM SAM (USB catalog # US10601), 4 μM esculetin (substrate) and 40 mM MgCl2. The formation of product (seopoletin) was monitored over time by fluorescence (excitation 340 nm, emission 460 nm, no lag, 100 μs integration time, 5 flashes, top read) using a Tecan Safire^2 plate reader. Assays were monitored over time until a signal to background of 4 to 1 was achieved. Titration curves and IC50 values were calculated using standard procedures. […] In some cases, compounds were not preincubated with MB-COMT for 2 hours at room temperature prior to starting the enzyme assays.
To determine IC50 values in the fluorescence polarization assay, solutions of test compounds were prepared and preincubated with COMT enzyme as stated above. […] After 25 minutes incubation at room temperature, reactions were quenched with 5 μL 250 mM EDTA, […]. To quenched reactions, 20 μL of a preformed complex containing S-adenosyl-L-cysteine (SAC) TAMRA tracer (2 mM from Ana spec diluted 1:80,000) and a 1:20 dilution of anti-S-adenosyl-L-homocysteine antibody (mouse monoclonal from Abbott Homocysteine detection kit, catalog #7D29-20) was prepared in assay buffer 11 (Na2HPO4 pH 7.2). Prior to combining with quenched enzyme assays, the SAH antibody/SAC TAMRA tracer complex was preformed at room temperature for 30 minutes while protected from light. Therefore, the final concentration of the SAH antibody/SAC TAMRA mix was 1:60 and 1:240,000, respectively. […] Titration curves and IC50 values were calculated using standard protocols.

[1] = Esculetin or Fluorescence Polarization assay, Val158 variant

Structure (SMILES)	IC50 [1]	IC50
Cn1c(-c2ccc(Cl)c(C(F)(F)F)c2)ncc(O)c1=O [Example 1, 2-[4-chloro-3-(trifluoromethyl)phenyl]-5-hydroxy-3-methylpyrimidin-4(3H)-one]	180 nM	–
COc1ccc(Oc2cccc(-c3ncc(O)c(=O)n3C)c2)cc1 [Example 5, 5-hydroxy-2-[3-(4-methoxyphenoxy)phenyl]-3-methylpyrimidin-4(3H)-one]	–	93 nM
O=c1[nH]c(-c2ccc(C(F)(F)F)cc2)ncc1O [Example 6, 5-Hydroxy-2-(4-trifluoromethyl-phenyl)-3H-pyrimidin-4-one]	–	210 nM
O=c1[nH]c(-c2cccc(C#Cc3ccccc3)c2)ncc1O [Example 8]	590 nM	–
